Test results taken from patent publication US11285130B2, “Treatment of mitochondrial diseases” (Khondrion IP B.V., priority 2017, dated 2022).
Where two headings read alike, the source gives them in different places.

How the values were obtained:
hERG potassium channel = hERG potassium channel (Homo sapiens, UniProt Q12809); assay: hERG blocking; type: biochemical
[1] = tested on: primary human fibroblasts from patients with LHON; assay: Oxidative stress-induced cell death (BSO) assay, LHON patient fibroblasts; type: cell-based; conditions: Homo sapiens, Fibroblast; fibroblasts derived from LHON patients, 100 μM BSO; read-out: EC50, protection from oxidative stress-induced cell death
Description: (§1) To determine the effective concentration of the compounds (the concentrations that protect patient cells against oxidative stress-induced cell death) the applicant established an assay using stressed primary human fibroblasts from patients with Leigh syndrome, MELAS or LHON diseases. Utilising the inherent oxidative stress of fibroblasts from patients with mitochondrial disease, their oxidative burden was further increased by depleting cellular glutathione with an inhibitor of glutathione synthesis, L-buthionine-(S,R)-sulfoximine (BSO). […] Cells were seeded at a density of 3000 cells/well in a 96-well format and incubated with increasing concentrations of compounds in combination with BSO (100 μM, Sigma-aldrich). One day after treatment, the cells were washed twice and stained with a solution of 5 μM calcein-AM (Life technologies C3100MP) during 25 min in 199 medium without phenol red (Life technologies, 11043-023) at room temperature. After 2 washes with PBS (Phosphate buffered saline) the plate was read on a fluorescence plate reader (Fluostar Omega, BMG labtech) and the percentage of cell viability determined as a function of fluorescence intensity.

[2] = SAD study safety and tolerability (adverse events), healthy male volunteers
PgP efflux pump = PgP efflux pump (Homo sapiens, UniProt P08183); assay: In vitro efflux; type: in vitro ADME
Sequence of PgP efflux pump (P08183 whole entry): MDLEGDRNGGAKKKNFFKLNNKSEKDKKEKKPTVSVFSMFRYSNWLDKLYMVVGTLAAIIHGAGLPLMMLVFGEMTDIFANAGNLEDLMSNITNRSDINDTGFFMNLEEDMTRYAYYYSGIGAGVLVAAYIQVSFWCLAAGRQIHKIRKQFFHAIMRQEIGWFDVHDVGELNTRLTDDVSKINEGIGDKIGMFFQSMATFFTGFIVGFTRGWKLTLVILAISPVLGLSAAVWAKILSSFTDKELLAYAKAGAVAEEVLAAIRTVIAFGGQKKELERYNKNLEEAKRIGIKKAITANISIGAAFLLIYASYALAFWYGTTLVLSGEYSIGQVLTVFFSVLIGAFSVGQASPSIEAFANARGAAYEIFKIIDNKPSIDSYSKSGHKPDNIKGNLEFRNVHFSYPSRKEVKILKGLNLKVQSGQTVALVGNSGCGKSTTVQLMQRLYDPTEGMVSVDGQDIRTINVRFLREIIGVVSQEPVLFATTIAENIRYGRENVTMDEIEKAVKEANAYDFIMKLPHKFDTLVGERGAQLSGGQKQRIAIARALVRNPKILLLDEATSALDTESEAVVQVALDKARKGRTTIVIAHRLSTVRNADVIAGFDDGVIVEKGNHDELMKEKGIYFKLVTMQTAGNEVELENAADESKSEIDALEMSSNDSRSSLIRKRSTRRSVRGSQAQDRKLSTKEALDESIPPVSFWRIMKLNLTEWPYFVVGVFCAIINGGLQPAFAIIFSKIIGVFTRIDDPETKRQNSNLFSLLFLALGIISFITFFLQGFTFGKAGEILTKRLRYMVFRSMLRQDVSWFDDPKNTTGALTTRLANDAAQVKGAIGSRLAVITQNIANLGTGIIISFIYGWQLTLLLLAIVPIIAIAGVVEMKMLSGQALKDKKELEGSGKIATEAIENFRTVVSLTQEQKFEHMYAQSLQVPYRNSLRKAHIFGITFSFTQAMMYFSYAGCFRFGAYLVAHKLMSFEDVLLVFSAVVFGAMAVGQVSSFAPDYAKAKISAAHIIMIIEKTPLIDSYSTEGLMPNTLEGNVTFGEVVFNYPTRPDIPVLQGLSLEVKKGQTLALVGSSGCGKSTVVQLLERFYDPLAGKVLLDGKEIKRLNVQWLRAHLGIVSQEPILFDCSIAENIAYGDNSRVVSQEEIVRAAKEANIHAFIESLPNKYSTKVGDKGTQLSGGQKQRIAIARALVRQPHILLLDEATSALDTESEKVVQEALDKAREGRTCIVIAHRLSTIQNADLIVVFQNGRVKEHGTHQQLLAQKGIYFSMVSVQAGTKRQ

[3] = tested on: primary human fibroblasts from patients with Leigh syndrome; assay: Oxidative stress-induced cell death (BSO) assay, Leigh patient fibroblasts; type: cell-based; conditions: Homo sapiens, in vitro fibroblast assays (Redox assay), fibroblast type not given, values match Leigh
Description: as §1

[4] = ECG post-hoc analysis, MAD study; type: in vivo, human; parameters: QTcF: largest median baseline increase / QTcF: largest individual increase: unit not given here
Protocol: The changes from baseline (pre-dose assessment on Day 1) for body weight, physical examinations, vital signs, ECG-variables and clinical laboratory variables were determined for each time point. Treatment-emergent laboratory and ECG abnormalities as well as adverse events were monitored throughout the study, up to 28 Days after the last study drug intake.
The goal of this post-hoc optimization study was to repeat the ECG assessment with an highly automated computer-assisted approach where in addition to the re-evaluation of standard intervals (PR, QRS and QT intervals), a set of parameters describing repolarization morphology were considered. The morphology indices were the TpTe interval (interval from the T wave apex to the end of the T wave), the TpTe/QT index (the ratio between the TpTe interval and the QT interval), Tamp (the amplitude in microvolt units of the T wave) and TSym (an index of repolarization morphology based on the symmetry of the T wave).
ECGs were digitally recorded using a Schiller AT104 ECG machine (500 Hz, 1 μV). Cardiac interval measurements were performed on the Global Superimposed Median Beat (GSMB), a methodology that allows measurements that consider each of the 12 individual median beats. This measurement methodology ensures that the PR, QRS, and QT interval are measured from the earliest onset in any lead to the latest deflection in any lead. Cardiologist overview of the computer-based measurements is based on the superimposed (overlapped) display of the individual median beats, to assure measurements are performed at the earliest onset of any viable lead to the latest offset of any viable lead.
The RR interval used for heart-rate correction of the QT interval (QTcB) was based on all the beats in the ten second recording.
Other cardiac parameters were computed from the 12-lead vector magnitude VM (e.g. the square root of the sum of squares at each digital sample) computed from the individual median beats. On the VM lead, the apex of the T wave is placed and used to compute the TpTe interval (using the end of the T wave from the GSMB) and the T wave amplitude (height in microvolt of the VM T peak from the isoelectric line). […] T wave symmetry index was computed using a proprietary approach based on Gaussian Mesa function modeling (GMF) of the repolarization waves (Badilini F et al. J Electrocardiol 2008, 41:588-594). Briefly, the ascending and descending phases of the VM T wave are modeled by two independent half-Gaussian curves (see FIG. 3). The standard deviations of these functions (σ1 and σ2) and indicators of the ascending/descending speed and their ratio is an index of symmetry (TSym=σ1/σ2; TSym=1 for a perfectly symmetric T wave, TSym<1 for slow-ascending/fast-descending T waves, T>1 for fast-ascending/slow-decending T waves).
For the pre-dose (baseline) ECGs, all parameters per time point were calculated as the averages of the triplicate ECGs. Computation of QTcB and QTcF was performed using the RR interval averaged from the total ECG acquisition duration (10 seconds) and in the case of the triplicate ECGs is based on the average QT and average HR of the replicate ECGs.
The over-reading cardiologist provided a clinical interpretation for each ECG at each time point. Each ECG was classified as Normal, Abnormal Clinically Insignificant (ACI), or Abnormal Clinically Significant (ACS). Results of this post-hoc analysis were used for an exposure-response evaluation for the changes in the electrophysiological parameters as a function of the concentration of KH176.

[5] = male, human, in vivo, 7 days
[6] = Pharmacodynamic analysis of oxidized and reduced glutathione, MAD study; type: in vivo, human; conditions: Day 7, blood
Protocol: Blood samples for pharmacodynamic analyses were taken pre-dose and at 3, 6 and 24 h post dosing at Day 7 (MAD). All samples were stored in −80° C. until analysis. Quantification of oxidized and reduced glutathione was performed at York Bioanalytical solutions using a previously described validated method (Moore T et al, J Chromatogr B Analyt Technol Biomed Life Sci 2013, 929:51-55). Change from baseline in the concentrations of oxidized and reduced glutathione (GSH/GSSG) was calculated.

Sequence of hERG potassium channel (Q12809 whole entry): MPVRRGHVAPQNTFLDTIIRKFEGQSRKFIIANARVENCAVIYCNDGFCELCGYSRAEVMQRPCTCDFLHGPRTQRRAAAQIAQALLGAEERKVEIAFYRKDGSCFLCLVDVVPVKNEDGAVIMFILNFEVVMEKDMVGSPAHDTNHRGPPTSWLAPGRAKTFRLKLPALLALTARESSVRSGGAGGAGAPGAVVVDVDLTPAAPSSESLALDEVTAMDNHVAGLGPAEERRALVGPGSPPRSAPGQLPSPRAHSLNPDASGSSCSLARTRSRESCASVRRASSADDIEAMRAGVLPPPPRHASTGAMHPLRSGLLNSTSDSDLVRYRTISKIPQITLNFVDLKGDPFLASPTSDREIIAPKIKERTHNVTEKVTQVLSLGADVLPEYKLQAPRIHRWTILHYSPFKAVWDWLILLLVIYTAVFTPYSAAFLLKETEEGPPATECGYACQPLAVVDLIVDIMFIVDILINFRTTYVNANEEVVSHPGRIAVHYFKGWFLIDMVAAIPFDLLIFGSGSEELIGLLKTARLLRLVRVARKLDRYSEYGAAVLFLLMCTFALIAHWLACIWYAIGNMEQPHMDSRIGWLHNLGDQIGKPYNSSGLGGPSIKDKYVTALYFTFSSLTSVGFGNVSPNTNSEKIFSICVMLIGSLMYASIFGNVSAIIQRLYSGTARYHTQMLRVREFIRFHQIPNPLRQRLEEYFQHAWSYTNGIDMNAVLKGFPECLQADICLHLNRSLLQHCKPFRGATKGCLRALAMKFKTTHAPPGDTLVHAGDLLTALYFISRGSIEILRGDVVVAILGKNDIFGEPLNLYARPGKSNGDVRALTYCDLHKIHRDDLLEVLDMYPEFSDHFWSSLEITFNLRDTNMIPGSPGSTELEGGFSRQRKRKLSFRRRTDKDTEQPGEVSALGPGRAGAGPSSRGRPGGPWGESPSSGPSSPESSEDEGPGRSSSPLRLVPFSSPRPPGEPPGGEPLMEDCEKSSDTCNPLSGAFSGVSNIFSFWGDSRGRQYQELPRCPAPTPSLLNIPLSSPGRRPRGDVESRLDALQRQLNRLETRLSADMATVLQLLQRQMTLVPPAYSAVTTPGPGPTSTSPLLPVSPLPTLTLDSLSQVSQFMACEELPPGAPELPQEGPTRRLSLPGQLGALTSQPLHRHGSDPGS

Cc1c(C)c2c(c(C)c1O)CC[C@@](C)(C(=O)N[C@@H]1CCCNC1)O2.Cl [KH176, (S)-6-hydroxy-2,5,7,8-tetramethyl-N-((R)-piperidin-3-yl)chroman-2-carboxamide hydrochloride]
IC50 of hERG blocking relative to the Cmax for the highest dose (hERG potassium channel): 3 times | EC50 [1]: 49 nM | TEAE: Influenza like illness (subjects) ([2]; SAD 10 mg (N = 4)): 0 n (%) | TEAE: Influenza like illness (subjects) ([2]; SAD 30 mg (N = 4)): 0 n (%) | TEAE: Influenza like illness (subjects) ([2]; SAD 100 mg (N = 4)): 0 n (%) | TEAE: Influenza like illness (subjects) ([2]; SAD 100 mg + Food (N = 4)): 0 n (%) | TEAE: Influenza like illness (subjects) ([2]; SAD 300 mg (N = 4)): 0 n (%) | TEAE: Influenza like illness (subjects) ([2]; SAD 800 mg (N = 6)): 0 n (%) | TEAE: Influenza like illness (subjects) ([2]; SAD 2000 mg (N = 4)): 0 n (%) | efflux / excretion (PgP efflux pump): excreted by the PgP efflux pump | EC50 ([3]; read-out: EC50): 182 nM | EC50 ([3]; read-out: EC50 expressed): ~0.06 µg/mL | effect on QTcF ([4]; MAD 100 mg b.i.d.): no effect | PR interval: largest median baseline increase ([4]; MAD 200 mg): 12 ms | QTcF: largest individual increase ([4]; MAD 200 mg): 28.3 | QTcF: largest median baseline increase ([4]; MAD 200 mg): 13.3 | T-wave symmetry index: largest individual increase ([4]; MAD 200 mg): 0.6 | T-wave symmetry index: largest median baseline increase ([4]; MAD 200 mg): 0.45 | TpTe interval: largest individual increase ([4]; MAD 200 mg): 46 ms | TpTe interval: largest median baseline increase ([4]; MAD 200 mg): 24 ms | QTcF, median maximum change from baseline ([4]; MAD 200 mg b.i.d., Day 5): 13 ms | PR interval: largest median baseline increase ([4]; MAD 400 mg): 19 ms | QRS interval: largest individual increase ([4]; MAD 400 mg): 15.3 ms | QRS interval: largest median baseline increase ([4]; MAD 400 mg): 9.7 ms | QTcF: largest individual increase ([4]; MAD 400 mg): 43.7 | QTcF: largest median baseline increase ([4]; MAD 400 mg): 29.2 | T-wave symmetry index: largest individual increase ([4]; MAD 400 mg): 0.99 | T-wave symmetry index: largest median baseline increase ([4]; MAD 400 mg): 0.63 | TpTe interval: largest individual increase ([4]; MAD 400 mg): 62.7 ms | TpTe interval: largest median baseline increase ([4]; MAD 400 mg): 42.3 ms | QTcF, median maximum change from baseline at trough ([4]; MAD 400 mg b.i.d., Day 6): 29 ms | AEs rated mild in severity [5]: 27 | moderate AEs [5]: 2 | subjects reporting AEs [5]: 10 subjects | GSH/GSSG ratio, change from baseline [6]: No significant alterations
